Source: ChEMBL document CHEMBL5321192, “Synthesis and screening of novel 4-N-heterocyclic-2-aryl-6,7,8-trimethoxyquinazolines as antiproliferative and tubulin polymerization inhibitors” (Bioorg Med Chem, 2022)
The source made the active and inactive calls. The rule behind the calls is not given here.

Columns and labels:
[1] = Cytotoxicity against human HEK293T cells assessed as cell growth inhibition incubated for 48 hrs by MTT assay; assay type: toxicity, cell-based, HEK-293T
HT-29 = assay: Antiproliferative activity against human HT-29 cells assessed as cell growth inhibition incubated for 48 hrs by MTT assay; assay type: functional, cell-based; settings: HT-29, 48 h
HeLa = assay: Antiproliferative activity against human HeLa cells assessed as cell growth inhibition incubated for 48 hrs by MTT assay; assay type: functional, cell-based
MCF7 [2] = assay: Antiproliferative activity against human MCF7 cells assessed as cell growth inhibition incubated for 48 hrs by MTT assay; assay type: functional, cell-based; settings: MCF7, 48 h
MCF7 [3] = assay: Induction of cell cycle arrest in human MCF7 cells assessed as accumulation of cells at S phase at 10 uM incubated for 48 hrs by propidium iodide staining based flow cytometer analysis (reference value: 14.6 %); assay type: functional
MCF7 [4] = assay: Induction of apoptosis in human MCF7 cells assessed as viable cells at 10 uM incubated for 48 hrs by Annexin V-FITC/propidium iodide staining based flow cytometric analysis; assay type: functional; settings: read-out: Activity
MCF7 [5] = assay: Induction of apoptosis in human MCF7 cells assessed as necrotic cells at 10 uM incubated for 48 hrs by Annexin V-FITC/propidium iodide staining based flow cytometric analysis (reference value: 1.3 %); assay type: functional
MCF7 [6] = assay: Induction of cell cycle arrest in human MCF7 cells assessed as accumulation of cells at G2/M phase at 10 uM incubated for 48 hrs by propidium iodide staining based flow cytometer analysis (reference value: 31.9 %); assay type: functional
MCF7 [7] = assay: Induction of apoptosis in human MCF7 cells assessed as late apoptotic cells at 10 uM incubated for 48 hrs by Annexin V-FITC/propidium iodide staining based flow cytometric analysis (reference value: 3.4 %); assay type: functional
MCF7 [8] = assay: Induction of apoptosis in human MCF7 cells assessed as early apoptotic cells at 10 uM incubated for 48 hrs by Annexin V-FITC/propidium iodide staining based flow cytometric analysis (reference value: 2.4 %); assay type: functional
MCF7 [9] = assay: Induction of cell cycle arrest in human MCF7 cells assessed as accumulation of cells at G1/G0 phase at 10 uM incubated for 48 hrs by propidium iodide staining based flow cytometer analysis (reference value: 53.8 %); assay type: functional
Cell membrane = assay: Induction of mitochondrial membrane potential depolarization in human MCF7 cells at 10 uM incubated for 48 hrs by JC-1 staining based microplate reader assay; assay type: subcellular
Tubulin (Sus scrofa) [10] = biological target: T1, Tubulin (Sus scrofa) (UniProt P02554+P02550); assay: Inhibition of porcine brain tubulin polymerization at 100 nM incubated for 60 mins in presence of GTP by spectrophotometric analysis; assay type: tissue-based
T1 sequence (P02550 whole entry, looked up): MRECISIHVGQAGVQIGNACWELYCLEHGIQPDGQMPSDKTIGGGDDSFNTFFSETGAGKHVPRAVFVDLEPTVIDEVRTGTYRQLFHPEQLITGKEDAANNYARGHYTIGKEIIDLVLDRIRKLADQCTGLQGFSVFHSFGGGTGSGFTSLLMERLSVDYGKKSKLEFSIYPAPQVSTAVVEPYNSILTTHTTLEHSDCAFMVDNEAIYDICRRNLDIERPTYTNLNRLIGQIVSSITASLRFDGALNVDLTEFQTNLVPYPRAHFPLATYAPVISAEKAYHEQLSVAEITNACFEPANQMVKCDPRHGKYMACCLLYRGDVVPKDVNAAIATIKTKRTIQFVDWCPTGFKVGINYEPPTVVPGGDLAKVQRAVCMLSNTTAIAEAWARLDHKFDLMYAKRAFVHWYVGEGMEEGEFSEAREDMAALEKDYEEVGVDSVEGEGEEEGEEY
T1 sequence (P02554 whole entry, looked up): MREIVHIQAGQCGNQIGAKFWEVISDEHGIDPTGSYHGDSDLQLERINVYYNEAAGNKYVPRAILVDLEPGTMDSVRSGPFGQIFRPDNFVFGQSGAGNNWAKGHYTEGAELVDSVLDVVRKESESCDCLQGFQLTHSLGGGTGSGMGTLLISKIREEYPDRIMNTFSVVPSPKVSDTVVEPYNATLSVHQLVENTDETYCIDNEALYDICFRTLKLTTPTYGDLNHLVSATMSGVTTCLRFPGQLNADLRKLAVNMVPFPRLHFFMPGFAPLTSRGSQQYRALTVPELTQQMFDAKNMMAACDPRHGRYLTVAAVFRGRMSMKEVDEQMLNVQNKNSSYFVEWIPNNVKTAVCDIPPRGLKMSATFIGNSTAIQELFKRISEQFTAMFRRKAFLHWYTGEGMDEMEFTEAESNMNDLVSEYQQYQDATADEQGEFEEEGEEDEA

Tubulin (Sus scrofa) [11] = biological target: T1, Tubulin (Sus scrofa); assay: Inhibition of porcine brain tubulin polymerization incubated for 60 mins in presence of GTP by spectrophotometric analysis; assay type: tissue-based
Tubulin (Sus scrofa) [12] = biological target: T1, Tubulin (Sus scrofa); assay: Inhibition of porcine brain tubulin polymerization at 3 uM incubated for 60 mins in presence of GTP by spectrophotometric analysis; assay type: tissue-based

Row | IC50 (HT-29) [µM] | IC50 (HeLa) [µM] | IC50 (MCF7 [2]) [µM] | Structure (SMILES) | IC50 at 48 h [1] [µM] | further results
1 | 13 | > 25 | 16.2 | COc1cc2c(-n3nnc4ccccc43)nc(-c3ccc(Cl)cc3)nc2c(OC)c1OC | > 25 | –
2 | > 25 | > 25 | > 25 | COc1cc(-c2nc(-n3nnc4ccccc43)c3cc(OC)c(OC)c(OC)c3n2)cc(OC)c1OC | > 25 | –
3 | > 25 | > 25 | 18.1 | COc1ccc(-c2nc(-n3nnc4ccccc43)c3cc(OC)c(OC)c(OC)c3n2)cc1 | > 25 | –
4 | > 25 | 18.7 | 22.1 | COc1ccc(-c2nc(-n3ccnc3)c3cc(OC)c(OC)c(OC)c3n2)cc1OC | > 25 | –
5 | > 25 | > 25 | 8.59 | COc1cc2c(-n3cnnc3)nc(-c3ccc(Br)cc3)nc2c(OC)c1OC | > 25 | –
6 | 15.2 | 14.7 | 12.2 | COc1cc2c(-n3ccnc3)nc(-c3ccccc3)nc2c(OC)c1OC | > 25 | –
7 | 11.8 | > 25 | 13.7 | COc1cc2c(-n3cnnc3)nc(-c3ccccc3C(F)(F)F)nc2c(OC)c1OC | > 25 | –
8 | > 25 | 13.3 | 8.33 | COc1cc2c(-n3cnnc3)nc(-c3ccc(Cl)cc3)nc2c(OC)c1OC | > 25 | –
9 | 23.1 | > 25 | 14.4 | COc1cc2c(-n3nnc4ccccc43)nc(-c3ccccc3)nc2c(OC)c1OC | > 25 | –
10 | 6.76 | 17.4 | 6.37 | COc1cc2c(-n3ccnc3)nc(-c3ccc(Br)cc3)nc2c(OC)c1OC | > 25 | Activity (MCF7 [3]): 8.5%; viability at 10 µM (MCF7 [4]): 11.8%; Activity (MCF7 [5]): 7.9%; Activity (MCF7 [6]): 17.7%; Activity (MCF7 [7]): 70.9%; Activity (MCF7 [8]): 9.4%; Activity (MCF7 [9]): 70.3%; Activity (Cell membrane): inactive
11 | > 25 | 10.2 | 15.2 | COc1cc2c(-n3nnc4ccccc43)nc(-c3ccc(Br)cc3)nc2c(OC)c1OC | > 25 | –
12 | 10.4 | 8.53 | 2.16 | COc1cc2c(-n3ccnc3)nc(-c3ccc(Cl)cc3)nc2c(OC)c1OC | > 25 | inhibition (Tubulin (Sus scrofa) [10]): Active; Activity (MCF7 [3]): 4.9%; inhibition (Tubulin (Sus scrofa) [11]): Dose-Dependent Effect; viability at 10 µM (MCF7 [4]): 34.9%; Activity (MCF7 [5]): 4.1%; Activity (MCF7 [6]): 82.6%; Activity (MCF7 [7]): 41.1%; Activity (MCF7 [8]): 19.9%; Activity (MCF7 [9]): 11.5%; Activity (Cell membrane): Active
13 | > 25 | 10.3 | > 25 | COc1ccc(-c2nc(-n3cnnc3)c3cc(OC)c(OC)c(OC)c3n2)cc1 | > 25 | –
14 | > 25 | > 25 | > 25 | COc1cc2c(N3CCOCC3)nc(-c3ccccc3)nc2c(OC)c1OC | > 25 | –
15 | 5.45 | > 25 | 23.4 | COc1cc(-c2nc(-n3cnnc3)c3cc(OC)c(OC)c(OC)c3n2)cc(OC)c1OC | > 25 | –
16 | – | – | – | CC(=O)O[C@H]1C(=O)[C@@]2(C)[C@H]([C@H](OC(=O)c3ccccc3)[C@]3(O)C[C@H](OC(=O)[C@H](O)[C@@H](NC(=O)c4ccccc4)c4ccccc4)C(C)=C1C3(C)C)[C@]1(OC(C)=O)CO[C@@H]1C[C@@H]2O | – | inhibition (Tubulin (Sus scrofa) [12]): Active
17 | > 25 | > 25 | > 25 | COc1cc2c(-n3cnnc3)nc(-c3ccccc3)nc2c(OC)c1OC | > 25 | –

Row | Structure (SMILES) | IC50 (HT-29) [µM] | IC50 (HeLa) [µM] | IC50 (MCF7 [2]) [µM] | IC50 at 48 h [1] [µM] | further results
18 | COc1cc2c(c(OC)c1OC)-c1ccc(OC)c(=O)cc1[C@@H](NC(C)=O)CC2 [COLCHICINE] | – | 17.8 | – | > 25 | Activity (MCF7 [3]): 4.1%; viability at 10 µM (MCF7 [4]): 27.7%; Activity (MCF7 [5]): 2.8%; Activity (MCF7 [6]): 89.4%; Activity (MCF7 [7]): 54%; Activity (MCF7 [8]): 15.5%; Activity (MCF7 [9]): 5.4%
